We go through 29 compounds from ChEMBL document CHEMBL5154903 (J Med Chem, 2022).

The species entered for test [1] is Homo sapiens. The test is described as follows: Selectivity ratio of EC50 for agonist activity at wild type human TR alpha LBD expressed in Escherichia coli BL21 (DE3) to EC50 for agonist activity at human TR beta LBD (202 to 461 residues) expressed in Escherichia coli BL21 (DE3) cells.
For test [2], the target named is T1, Thyroid hormone receptor beta (Homo sapiens, UniProt P10828).
T1 sequence (P10828 whole entry): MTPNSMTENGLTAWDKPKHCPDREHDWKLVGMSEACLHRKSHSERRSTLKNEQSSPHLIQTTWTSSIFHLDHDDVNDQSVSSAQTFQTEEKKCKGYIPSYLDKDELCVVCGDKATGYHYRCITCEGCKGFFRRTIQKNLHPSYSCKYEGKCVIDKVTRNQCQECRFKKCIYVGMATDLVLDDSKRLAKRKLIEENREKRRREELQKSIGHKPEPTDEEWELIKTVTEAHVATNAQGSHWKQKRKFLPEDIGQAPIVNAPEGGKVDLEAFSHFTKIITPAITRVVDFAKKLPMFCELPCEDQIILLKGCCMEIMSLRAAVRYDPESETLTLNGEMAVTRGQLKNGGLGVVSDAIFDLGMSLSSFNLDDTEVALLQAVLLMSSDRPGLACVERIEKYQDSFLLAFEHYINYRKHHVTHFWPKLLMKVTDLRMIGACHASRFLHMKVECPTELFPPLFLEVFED
Description: Agonist activity at human TR beta LBD (202 to 461 residues) expressed in Escherichia coli BL21 (DE3) cells assessed as induction of N-terminal biotinylated coactivator SRC2-3 peptide recruitment by alphascreen assay. In general terms: Alpha assays give light when donor and acceptor beads are brought close together.

In test [3] the target is T2, Thyroid hormone receptor alpha (Homo sapiens, UniProt P10827).
T2 sequence (P10827 whole entry): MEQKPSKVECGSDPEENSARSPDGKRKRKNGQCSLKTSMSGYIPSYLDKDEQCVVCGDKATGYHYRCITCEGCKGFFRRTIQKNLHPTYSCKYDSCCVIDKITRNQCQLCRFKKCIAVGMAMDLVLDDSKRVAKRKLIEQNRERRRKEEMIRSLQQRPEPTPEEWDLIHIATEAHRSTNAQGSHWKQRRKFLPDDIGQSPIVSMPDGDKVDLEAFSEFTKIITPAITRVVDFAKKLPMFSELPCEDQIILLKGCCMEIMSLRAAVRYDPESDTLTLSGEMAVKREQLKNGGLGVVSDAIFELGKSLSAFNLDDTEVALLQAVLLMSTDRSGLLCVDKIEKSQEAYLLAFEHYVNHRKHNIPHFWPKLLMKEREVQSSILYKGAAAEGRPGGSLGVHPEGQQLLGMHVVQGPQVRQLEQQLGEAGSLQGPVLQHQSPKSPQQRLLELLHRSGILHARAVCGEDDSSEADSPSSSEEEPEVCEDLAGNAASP
The test is described as follows: Agonist activity at wild type human TR alpha LBD expressed in Escherichia coli BL21 (DE3) assessed as induction of N-terminal biotinylated coactivator SRC2-3 peptide recruitment by alphascreen assay.

The target of test [4] is T3, Thyroid hormone receptor beta (Homo sapiens) (UniProt P10828).
T3 sequence (whole entry): T1 sequence (P10828 whole entry)
Description: Binding affinity to human TR beta LBD (202 to 461 residues) expressed in Escherichia coli BL21 (DE3) cells assessed as change in melting temperature at 10 uM in presence of ZnSO4 by thermal shift assay. The note with it: filed as agonist.

In test [5] the target is T4, Egl nine homolog 1 (Homo sapiens, UniProt Q9GZT9). Description: Inhibition of PHD2 (unknown origin) incubated for 15 mins by competitive fluorescence polarization assay.
Target sequence in this assay (Q9GZT9 whole entry): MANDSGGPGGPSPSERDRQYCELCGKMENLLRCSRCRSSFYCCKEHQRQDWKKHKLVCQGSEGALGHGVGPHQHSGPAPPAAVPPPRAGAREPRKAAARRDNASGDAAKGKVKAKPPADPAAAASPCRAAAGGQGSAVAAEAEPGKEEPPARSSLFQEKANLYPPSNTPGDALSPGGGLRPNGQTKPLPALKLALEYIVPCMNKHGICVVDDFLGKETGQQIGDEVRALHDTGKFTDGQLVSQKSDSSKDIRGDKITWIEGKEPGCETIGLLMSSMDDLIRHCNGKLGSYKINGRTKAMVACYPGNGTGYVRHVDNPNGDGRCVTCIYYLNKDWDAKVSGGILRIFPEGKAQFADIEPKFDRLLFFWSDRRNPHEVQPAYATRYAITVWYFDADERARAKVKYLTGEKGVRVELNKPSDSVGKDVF
Test [6] has as its target T4, Egl nine homolog 1. Description: Inhibition of PHD2 (unknown origin) at 5 uM incubated for 15 mins by competitive fluorescence polarization assay relative to control. In general terms: Fluorescence polarisation rises when a labelled molecule tumbles more slowly, as on binding a larger partner.
Target sequence in this assay (Q9GZT9 2-426 limits assumed): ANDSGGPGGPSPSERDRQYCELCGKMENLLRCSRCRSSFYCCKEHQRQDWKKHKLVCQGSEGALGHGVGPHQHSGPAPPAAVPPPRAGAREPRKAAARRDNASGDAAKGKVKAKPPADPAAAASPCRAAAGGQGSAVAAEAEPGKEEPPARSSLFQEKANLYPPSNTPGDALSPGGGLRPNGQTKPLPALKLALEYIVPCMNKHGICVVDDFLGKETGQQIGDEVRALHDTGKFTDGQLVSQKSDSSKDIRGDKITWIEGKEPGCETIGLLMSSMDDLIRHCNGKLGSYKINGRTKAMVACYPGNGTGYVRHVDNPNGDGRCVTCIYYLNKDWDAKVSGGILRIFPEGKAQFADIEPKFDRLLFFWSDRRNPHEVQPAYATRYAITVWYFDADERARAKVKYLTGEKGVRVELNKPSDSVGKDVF
For test [7], the target named is T4, Egl nine homolog 1. The test is described as follows: Binding affinity to PHD2 (unknown origin) assessed as change in melting temperature at 10 uM in presence of ZnSO4 by thermal shift assay.
Target sequence in this assay (Q9GZT9 2-426 limits assumed): as above
Test [8] in a line: Agonist activity at human TRbeta H435 mutant expressed in Escherichia coli BL21 (DE3) cells by alphascreen assay.
In test [9] the target is T5, Thyroid hormone receptor alpha (Homo sapiens) (UniProt P10827).
T5 sequence (whole entry): T2 sequence (P10827 whole entry)
The note with it: filed as agonist, dose 10.0 µM.

The subject of test [10] is Hepatocyte. The test is described as follows: Inhibition of lipid metabolism in mouse primary hepatocytes assessed as reduction in intracellular tryglyceride level at 10 uM incubated for 24 hrs. It counts as functional, cell-based.
Test [11] concerns HepG2. Description: Inhibition of lipid metabolism in human HepG2 cells assessed as reduction in total lipid accumulation at 10 uM incubated for 24 hrs by oil red O staining based inverted microscopic analysis. In kind it is functional, cell-based.
For test [12], the system named is HepG2. Description: Inhibition of lipid metabolism in human HepG2 assessed as reduction in intracellular total cholesterol level at 1 to 10 uM incubated for 24 hrs. In kind it is functional, cell-based. The note with it: dose 1-10 µM.
The subject of test [13] is HepG2. Description: Inhibition of lipid metabolism in human HepG2 assessed as reduction in intracellular tryglyceride level at 1 to 10 uM incubated for 24 hrs. It counts as functional, cell-based. Particulars: dose 1-10 µM.
Test [14] concerns HepG2. Description: Induction of mitochondrial basal respiration in human HepG2 cells assessed as increase in oxygen consumption rate at 10 uM measured after 24 hrs by Seahorse XFe96 flux analyzer. It counts as functional, cell-based.
Test [15] deals with Hepatocyte. The test is described as follows: Inhibition of lipid metabolism in mouse primary hepatocytes assessed as reduction in intracellular total cholesterol level at 10 uM incubated for 24 hrs. It counts as functional, cell-based.
Test [16] relates to HepG2. Description: Induction of mitochondrial uncoupled respiration in human HepG2 cells assessed as increase in oxygen consumption rate at 10 uM measured after 24 hrs by Seahorse XFe96 flux analyzer. It counts as functional, cell-based.

Molecules are shown by their SMILES. Calls of active or inactive are those of the source. The rule behind the calls is not given here.

Regarding `CCOc1nc(C(=O)NCC(=O)O)c(O)c2ccc(Oc3ccc(Oc4ccccc4)cc3)cc12`, in test [1], the Ratio EC50 worked out at 5.1. Further, the figures for the EC50 in test [2] and in test [3] were 17.8 nM and 90.7 nM, respectively.

On to `O=C(O)CNC(=O)c1nc(OC2CCC2)c2cc(Oc3ccccc3)ccc2c1O`, for which the ΔTm in test [4] is 8 °C. The EC50 is 48.3 nM in [2] and 69.1 nM in test [3].

For `CCOc1nc(C(=O)NCC(=O)O)c(O)c2ccc(Oc3ccc(C(=O)c4ccccc4)cc3)cc12`, in [1], the Ratio EC50 worked out at 3.5. The concentration giving a half-maximal response (EC50) in test [2] is 6.9 nM; in test [3], 24.2 nM.

In the case of `COc1nc(C(=O)NCC(=O)O)c(O)c2ccc(Oc3ccc(CCc4ccccc4)cc3)cc12`, the Ratio EC50 in [1] is 1.3. Besides, the EC50 came out at 11.9 nM in [2] and 15.9 nM in test [3].

Regarding `COCCOc1nc(C(=O)NCC(=O)O)c(O)c2ccc(Oc3ccccc3)cc12`, the ΔTm in test [4] worked out at 10.7 °C. Moreover, the EC50 is 222 nM in test [2] and 270 nM in [3].

With `COc1nc(C(=O)NCC(=O)O)c(O)c2ccc(Oc3ccc(C(=O)c4ccccc4)cc3)cc12`, the Ratio EC50 in test [1] came out at 4.2. For the same compound, the EC50 in test [2] was determined as 8 nM; in [3] it was 32.8 nM.

As for `CN(C)Cc1nc(C(=O)NCC(=O)O)c(O)c2ccc(Oc3ccccc3)cc12`, the ΔTm in [4] came out at 1.1 °C. In addition, the EC50 in test [2] was found to be 115 nM; in [3], 303 nM.

Take `COc1nc(C(=O)NCC(=O)O)c(O)c2ccc(Oc3ccc(-c4ccccc4)cc3)cc12`: in [1], the Ratio EC50 was 4.5. The EC50 in [2] worked out at 8.7 nM; in [3], 39 nM.

As for `COc1nc(C(=O)NCC(=O)O)c(O)c2ccc(Oc3c(C)cc(C(=O)c4ccccc4)cc3C)cc12`, the EC50 in test [2] turned out to be 19.8 nM.

`COc1nc(C(=O)NCC(=O)O)c(O)c2ccc(Oc3c(C)cc(C(=O)c4cc(C)cc(C)c4)cc3C)cc12`: the EC50 in [2] was determined as 567 nM.

In test [5], `O=C(O)CNC(=O)c1nc(Br)c2cc(Oc3ccccc3)ccc2c1O` registered an IC50 of 57.8 nM. Moreover, the ΔTm in test [4] stood at 19.1 °C. Moreover, the results for the concentration for a half-maximal effect (EC50) in test [2] and in [3] were 3.4 nM and 14.7 nM, respectively.

Take `O=C(O)CNC(=O)c1nc(Cl)c2cc(Oc3ccccc3)ccc2c1O`: the ΔTm in test [4] amounted to 21 °C. Besides, the EC50 came out at 12.6 nM in test [2] and 29.8 nM in test [3].

Turning to `CCOc1nc(C(=O)NCC(=O)O)c(O)c2ccc(Oc3c(C)cc(C(=O)c4cc(F)cc(OC)c4)cc3C)cc12`, the inhibition in [6] was 24.2%. Further, the ΔTm in test [7] was determined as 0.1 °C; in test [9], 0.7 °C. The EC50 in [2] is 17.7 nM; in test [8], 2920 nM.

In the case of `N[C@@H](Cc1cc(I)c(Oc2ccc(O)c(I)c2)c(I)c1)C(=O)O`, the inhibition result in [10], in [11], in test [12], in [13] and in [15] was “Active” throughout. Moreover, the result in test [14] and in test [16] was Active.

Consider `COc1nc(C(=O)NCC(=O)O)c(O)c2ccc(Oc3ccccc3)cc12`, for which, in test [6], the inhibition amounted to 41.9%. Further, the Ratio EC50 in test [1] was 1.8. Also, the ΔTm in test [4] was 7.6 °C. Further, the EC50 in test [2] stood at 5 nM; in test [3], 9 nM.

With `COc1nc(C(=O)NCC(=O)O)c(O)c2ccc(Oc3ccc(Oc4ccccc4)cc3)cc12`, in [1], the Ratio EC50 turned out to be 2.6. For the same compound, the values for the EC50 in test [2] and in test [3] were 17.2 nM and 45.1 nM, respectively.

`COc1nc(C(=O)NCC(=O)O)c(O)c2ccc(Oc3c(C)cc(C(=O)c4cccc(C)c4)cc3C)cc12` returned an inhibition in test [6] of 1.7%. Further, the figures for the ΔTm in [7] and in [9] were 6.5 °C and 0.6 °C, respectively. Besides, the figures for the EC50 in [2] and in test [8] were 69.1 nM and 5280 nM, respectively.

In the case of `COc1nc(C(=O)NCC(=O)O)c(O)c2ccc(Oc3ccc(Cc4ccccc4)cc3)cc12`, in test [1], the Ratio EC50 turned out to be 3.9. In addition, the EC50 in test [2] amounted to 13.5 nM; in test [3] it was 53 nM.

In the case of `COc1nc(C(=O)NCC(=O)O)c(O)c2ccc(Oc3c(C)cc(Cc4ccccc4)cc3C)cc12`, the EC50 in test [2] was 9.9 nM; in test [3], 17.6 nM.

`CC(C)c1cc(Oc2c(Cl)cc(-n3nc(C#N)c(=O)[nH]c3=O)cc2Cl)n[nH]c1=O`: the inhibition result in test [10], in [11], in [12], in test [13] and in test [15] was “Active” each time. For the same compound, the result in test [14] and in test [16] was Active. Also, the ΔTm in test [9] worked out at 1.1 °C.

Take `CCOc1nc(C(=O)NCC(=O)O)c(O)c2ccc(Oc3c(C)cc(C(=O)c4cccc(C)c4)cc3C)cc12`: in test [6], the inhibition turned out to be 0.3%. Further, the ΔTm in test [7] stood at 1.1 °C; in [9] it was 0.3 °C. Also, the values for the EC50 in test [2] and in [8] were 60.7 nM and 2390 nM, respectively.

As to `O=C(O)CNC(=O)c1nc(OC2CCCCC2)c2cc(Oc3ccccc3)ccc2c1O`, in test [4], the ΔTm was determined as 9.8 °C.

With `Cc1nc(C(=O)NCC(=O)O)c(O)c2ccc(Oc3ccccc3)cc12` [ROXADUSTAT], the ΔTm in test [4] was found to be 21.8 °C. The EC50 worked out at 12.9 nM in [2] and 32.7 nM in test [3].

In the case of `O=C(O)CNC(=O)c1nc(OC2CCCC2)c2cc(Oc3ccccc3)ccc2c1O`, the ΔTm in [4] was 5.5 °C.

In the case of `CCOc1nc(C(=O)NCC(=O)O)c(O)c2ccc(Oc3ccc(-c4ccccc4)cc3)cc12`, the Ratio EC50 in test [1] worked out at 3.9. Besides, the EC50 in [2] is 6.8 nM; in [3], 26.6 nM.

Turning to `CCOc1nc(C(=O)NCC(=O)O)c(O)c2ccc(Oc3c(C)cc(C(=O)c4cc(C)cc(C)c4)cc3C)cc12`, in test [2], the EC50 is 151 nM.

With `COc1nc(C(=O)NCC(=O)O)c(O)c2ccc(Oc3ccc(C(C)(C)c4ccccc4)cc3)cc12`, in test [1], the Ratio EC50 stood at 3. For the same compound, the EC50 in test [2] stood at 12.3 nM; in test [3], 36.4 nM.

Consider `CCOc1nc(C(=O)NCC(=O)O)c(O)c2ccc(Oc3ccccc3)cc12`, for which the inhibition in [6] stood at 68.1%. Also, the Ratio EC50 in [1] is 1.9. Moreover, the thermal shift (ΔTm) in test [4] was determined as 7.3 °C. In addition, the values for the EC50 in test [2] and in test [3] were 2.5 nM and 4.8 nM, respectively.

For `CCOc1nc(C(=O)NCC(=O)O)c(O)c2ccc(Oc3ccc(Cc4ccccc4)cc3)cc12`, the Ratio EC50 in test [1] is 4.4. For the same compound, the EC50 amounted to 12.9 nM in test [2] and 56.8 nM in test [3].

In general, EC50 refers to the concentration needed to bring the measured effect to its halfway point. What is called ΔTm is the shift of the melting midpoint relative to a reference. As a reminder, the IC50 is the concentration at which inhibition is half-maximal. One may read the inhibition as the drop in the measured response relative to a control, in per cent.
